Counter-ions that a name gives are not always drawn.
target: human SPR (Homo sapiens (Human), UniProt P35270); assay: Evaluation Example 2: Measurement of human SPR inhibitory activity (seven concentrations, sepiapterin absorbance at 420 nm); assay type: biochemical; conditions: Evaluation Example 2, seven concentrations 0.14 nM to 100 nM, 240 minutes at room temperature, read-out: IC50
Outline: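 Reactions ran 240 min at room temperature in 100 mM Tris-HCl pH 7.5 with 0.01% BSA. They contained tag-cleaved, E. coli-expressed full-length human SPR (diluted to 150 ng/mL), seven compound concentrations from 0.14 to 100 nM, and sepiapterin/NADPH added as a 120 μM/160 μM solution. Inhibition was calculated from sepiapterin absorbance at 420 nm.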

Sequence of human SPR (P35270 whole entry): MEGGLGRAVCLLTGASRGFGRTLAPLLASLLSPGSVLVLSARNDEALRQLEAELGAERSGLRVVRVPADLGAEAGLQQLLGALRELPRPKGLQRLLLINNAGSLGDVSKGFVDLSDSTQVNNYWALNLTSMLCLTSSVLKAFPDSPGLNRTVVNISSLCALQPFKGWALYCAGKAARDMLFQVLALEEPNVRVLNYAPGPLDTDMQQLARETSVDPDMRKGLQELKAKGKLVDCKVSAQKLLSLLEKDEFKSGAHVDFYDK

In order of falling IC50:
1. CC(C)Cn1c(=O)c(C(=O)NC2CC2)c(O)n2nc(N)c(/C=C/C3CCCCC3)c12 [Synthesis Example 441, (E)-2-Amino-3-(2-cyclohexylvinyl)-N-cyclopropyl-7-hydroxy-4-isobutyl-5-oxo-4,5-dihydropyrazolo[1,5-a]pyrimidine-6-carboxamide]  4.74 nM
2. Cc1nn2c(O)c(C(=O)NC3CC3)c(=O)n(CC(C)C)c2c1/C=C/C(=O)N1[C@H](C)CC[C@@H]1C [Synthesis Example 618, N-Cyclopropyl-3-((E)-3-(cis-2,5-dimethylpyrrolidin-1-yl)-3-oxoprop-1-en-1-yl)-7-hydroxy-4-isobutyl-2-methyl-5-oxo-4,5-dihydropyrazolo[1,5-a]pyrimidine-6-carboxamide]  1.8 nM
3. CC(C)Cn1c(=O)c(C(=O)NC2CC2)c(O)n2nc(N)c(/C=C/C(C)(C)C)c12 [Synthesis Example 439, (E)-2-Amino-N-cyclopropyl-3-(3,3-dimethylbut-1-en-1-yl)-7-hydroxy-4-isobutyl-5-oxo-4,5-dihydropyrazolo[1,5-a]pyrimidine-6-carboxamide hydrochloride]  1.61 nM
4. Cc1nn2c(O)c(C(=O)NC3CC3)c(=O)n(CC(C)C)c2c1/C=C/C(=O)N1CCCC1C1CC1 (stereo not drawn) [Synthesis Example 619, (E)-N-Cyclopropyl-3-(3-(2-cyclopropylpyrrolidin-1-yl)-3-oxoprop-1-en-1-yl)-7-hydroxy-4-isobutyl-2-methyl-5-oxo-4,5-dihydropyrazolo[1,5-a]pyrimidine-6-carboxamide]  1.58 nM
5. CC(C)/C=C/c1c(N)nn2c(O)c(C(=O)NC3CC3)c(=O)n(CC(C)(C)C)c12 [Synthesis Example 442, (E)-2-Amino-N-cyclopropyl-7-hydroxy-3-(3-methylbut-1-en-1-yl)-4-neopentyl-5-oxo-4,5-dihydropyrazolo[1,5-a]pyrimidine-6-carboxamide hydrochloride]  1.53 nM
6. Cc1nn2c(O)c(C(=O)NC3CC3)c(=O)n(CC(C)C)c2c1/C=C/C(=O)N1CCC(C(F)(F)F)C1 (stereo not drawn) [Synthesis Example 614, (E)-N-Cyclopropyl-7-hydroxy-4-isobutyl-2-methyl-5-oxo-3-(3-oxo-3-(3-(trifluoromethyl)pyrrolidin-1-yl)prop-1-en-1-yl)-4,5-dihydropyrazolo[1,5-a]pyrimidine-6-carboxamide]  1.49 nM
7. COC[C@@H]1CCN(C(=O)/C=C/c2c(C)nn3c(O)c(C(=O)NC4CC4)c(=O)n(CC(C)C)c23)C1 [Synthesis Example 621, (R,E)-N-Cyclopropyl-7-hydroxy-4-isobutyl-3-(3-(3-(methoxymethyl)pyrrolidin-1-yl)-3-oxoprop-1-en-1-yl)-2-methyl-5-oxo-4,5-dihydropyrazolo[1,5-a]pyrimidine-6-carboxamide]  1.42 nM
8. Cc1nn2c(O)c(C(=O)NC3CC3)c(=O)n(CC(C)C)c2c1/C=C/C(=O)N1CCN(C2CC(F)(F)C2)CC1 [Synthesis Example 615, (E)-N-Cyclopropyl-3-(3-(4-(3,3-difluorocyclobutyl)piperazin-1-yl)-3-oxoprop-1-en-1-yl)-7-hydroxy-4-isobutyl-2-methyl-5-oxo-4,5-dihydropyrazolo[1,5-a]pyrimidine-6-carboxamide]  1.4 nM
9. Cc1nn2c(O)c(C(=O)NC3CC3)c(=O)n(CC(C)C)c2c1/C=C/C(=O)N1CC[C@H](C(C)(C)O)C1 [Synthesis Example 623, (S,E)-N-Cyclopropyl-7-hydroxy-3-(3-(3-(2-hydroxypropan-2-yl)pyrrolidine-1-yl)-3-oxoprop-1-en-1-yl)-4-isobutyl-2-methyl-5-oxo-4,5-dihydropyrazolo[1,5-a]pyrimidine-6-carboxamide]  1.27 nM
10. COC[C@H]1CCCN1C(=O)/C=C/c1c(C)nn2c(O)c(C(=O)NC3CC3)c(=O)n(CC(C)C)c12 [Synthesis Example 612, (R,E)-N-Cyclopropyl-7-hydroxy-4-isobutyl-3-(3-(2-(methoxymethyl)pyrrolidin-1-yl)-3-oxoprop-1-en-1-yl)-2-methyl-5-oxo-4,5-dihydropyrazolo[1,5-a]pyrimidine-6-carboxamide]  1.23 nM
11. CC(C)(C)Cn1c(=O)c(C(=O)NC2CC2)c(O)n2nc(N)c(/C=C/C3CC3)c12 [Synthesis Example 440, (E)-2-Amino-N-cyclopropyl-3-(2-cyclopropylvinyl)-7-hydroxy-4-neopentyl-5-oxo-4,5-dihydropyrazolo[1,5-a]pyrimidine-6-carboxamide hydrochloride]  1.2 nM
12. COC[C@H]1CCN(C(=O)/C=C/c2c(C)nn3c(O)c(C(=O)NC4CC4)c(=O)n(CC(C)C)c23)C1 [Synthesis Example 620, (S,E)-N-Cyclopropyl-7-hydroxy-4-isobutyl-3-(3-(3-(methoxymethyl)pyrrolidin-1-yl)-3-oxoprop-1-en-1-yl)-2-methyl-5-oxo-4,5-dihydropyrazolo[1,5-a]pyrimidine-6-carboxamide]  1.17 nM
13. Cc1nn2c(O)c(C(=O)NC3CC3)c(=O)n(CC(C)C)c2c1/C=C/C(=O)N1[C@H](C)CC[C@H]1C [Synthesis Example 616, N-Cyclopropyl-3-((E)-3-((2R,5R)-2,5-dimethylpyrrolidin-1-yl)-3-oxoprop-1-en-1-yl)-7-hydroxy-4-isobutyl-2-methyl-5-oxo-4,5-dihydropyrazolo[1,5-a]pyrimidine-6-carboxamide]  1.12 nM
14. Cc1nn2c(O)c(C(=O)NC3CC3)c(=O)n(CC(C)(C)C)c2c1/C=C/C(=O)N1CCOC[C@@H]1C [Synthesis Example 625, (S,E)-N-Cyclopropyl-7-hydroxy-2-methyl-3-(3-(3-methylmorpholino)-3-oxoprop-1-en-1-yl)-4-neopentyl-5-oxo-4,5-dihydropyrazolo[1,5-a]pyrimidine-6-carboxamide]  1.05 nM
15. COC[C@@H]1CCCN1C(=O)/C=C/c1c(C)nn2c(O)c(C(=O)NC3CC3)c(=O)n(CC(C)C)c12 [Synthesis Example 613, (S,E)-N-Cyclopropyl-7-hydroxy-4-isobutyl-3-(3-(2-(methoxymethyl)pyrrolidin-1-yl)-3-oxoprop-1-en-1-yl)-2-methyl-5-oxo-4,5-dihydropyrazolo[1,5-a]pyrimidine-6-carboxamide]  1.04 nM
16. Cc1nn2c(O)c(C(=O)NC3CC3)c(=O)n(CC(C)C)c2c1/C=C/C(=O)N1[C@@H](C)CC[C@@H]1C [Synthesis Example 617, N-Cyclopropyl-3-((E)-3-((2S,5S)-2,5-dimethylpyrrolidin-1-yl)-3-oxoprop-1-en-1-yl)-7-hydroxy-4-isobutyl-2-methyl-5-oxo-4,5-dihydropyrazolo[1,5-a]pyrimidine-6-carboxamide]  1.04 nM
17. Cc1nn2c(O)c(C(=O)NC3CC3)c(=O)n(CC(C)C)c2c1/C=C/C(=O)N1CCC(C(F)F)C1 (stereo not drawn) [Synthesis Example 622, (E)-N-Cyclopropyl-3-(3-(3-(difluoromethyl)pyrrolidin-1-yl)-3-oxoprop-1-en-1-yl)-7-hydroxy-4-isobutyl-2-methyl-5-oxo-4,5-dihydropyrazolo[1,5-a]pyrimidine-6-carboxamide]  1.03 nM
18. C/C=C/c1c(N)nn2c(O)c(C(=O)NC3CC3)c(=O)n(CC(C)(C)C)c12 [Synthesis Example 438, (E)-2-Amino-N-cyclopropyl-7-hydroxy-4-neopentyl-5-oxo-3-(prop-1-en-1-yl)-4,5-dihydropyrazolo[1,5-a]pyrimidine-6-carboxamide hydrochloride]  0.98 nM
19. CC(C)(C)Cn1c(=O)c(C(=O)NC2CC2)c(O)n2nc(N)c(/C=C/C3CCOC3)c12 (stereo not drawn) [Synthesis Example 444, (E)-2-Amino-N-cyclopropyl-7-hydroxy-4-neopentyl-5-oxo-3-(2-(tetrahydrofuran-3-yl)vinyl)-4,5-dihydropyrazolo[1,5-a]pyrimidine-6-carboxamide hydrochloride]  0.98 nM
20. Cc1nn2c(O)c(C(=O)NC3CC3)c(=O)n(CC(C)(C)C)c2c1/C=C/C(=O)N1[C@@H](C)COC[C@@H]1C [Synthesis Example 624, N-Cyclopropyl-3-((E)-3-((3S,5S)-3,5-dimethylmorpholino)-3-oxoprop-1-en-1-yl)-7-hydroxy-2-methyl-4-neopentyl-5-oxo-4,5-dihydropyrazolo[1,5-a]pyrimidine-6-carboxamide]  0.98 nM
21. Cc1nn2c(O)c(C(=O)NC3CC3)c(=O)n(CC(C)(C)C)c2c1/C=C/C(=O)N1CCC(F)(F)C1 [Synthesis Example 627, (E)-N-Cyclopropyl-3-(3-(3,3-difluoropyrrolidin-1-yl)-3-oxoprop-1-en-1-yl)-7-hydroxy-2-methyl-4-neopentyl-5-oxo-4,5-dihydropyrazolo[1,5-a]pyrimidine-6-carboxamide]  0.94 nM
22. CCc1nn2c(O)c(C(=O)NC3CC3)c(=O)n(CC(C)C)c2c1/C=C/C(=O)N1[C@@H](C)COC[C@@H]1C [Synthesis Example 626, N-Cyclopropyl-3-((E)-3-((3S,5S)-3,5-dimethylmorpholino)-3-oxoprop-1-en-1-yl)-2-ethyl-7-hydroxy-4-isobutyl-5-oxo-4,5-dihydropyrazolo[1,5-a]pyrimidine-6-carboxamide]  0.87 nM
23. CC1(Cn2c(=O)c(C(=O)NC3CC3)c(O)n3nc(N)c(/C=C/C4CCOCC4)c23)CCOCC1 [Synthesis Example 445, (E)-2-Amino-N-cyclopropyl-7-hydroxy-4-((4-methyltetrahydro-2H-pyran-4-yl)methyl)-5-oxo-3-(2-(tetrahydro-2H-pyran-4-yl)vinyl)-4,5-dihydropyrazolo[1,5-a]pyrimidine-6-carboxamide hydrochloride]  0.66 nM
24. Nc1nn2c(O)c(C(=O)NC3CC3)c(=O)n(CC3CCOCC3)c2c1/C=C/C1CCOCC1 [Synthesis Example 443, (E)-2-Amino-N-cyclopropyl-7-hydroxy-5-oxo-4-((tetrahydro-2H-pyran-4-yl)methyl)-3-(2-(tetrahydro-2H-pyran-4-yl)vinyl)-4,5-dihydropyrazolo[1,5-a]pyrimidine-6-carboxamide hydrochloride]  0.65 nM
